Data: paper PMC6150379, “Novel Triazole Hybrids of Betulin: Synthesis and Biological Activity Profile” (Molecules : A Journal of Synthetic Chemistry and Natural …, 2017)
Converted amounts (≈) assume the structure as drawn. Read-outs that look alike come from different tables or passages of the source.

Legend:
[1] = test system: cytopathogenic bovine orphan virus (ECBO) strain LCR-4; assay: Time of addition assay (post-adsorption), CPE/MTT in A549 cells; format: cell-based, cytopathogenic bovine orphan virus (BEV-1); conditions: for EC50: A549; for antiviral activity: ECBO, A549 cells, CC20 concentration
[2] = test system: T47D (human ductal carcinoma); assay: Cytotoxic activity, WST-1 assay; format: cell-based; conditions: 72 h, Neg = negative in the concentration used; for IC50: Homo sapiens
[3] = test system: MCF-7 (human adenocarcinoma); assay: Cytotoxic activity, WST-1 assay; format: cell-based; conditions: MCF-7, 72 h, Neg = negative in the concentration used; for IC50: Homo sapiens, MCF7
SNB-19 (glioblastoma) = assay: Cytotoxic activity, WST-1 assay; format: cell-based, human; conditions: SNB-19, 72 h, Neg = negative in the concentration used; for IC50: Homo sapiens
[4] = test system: Colo-829 (human malignant melanoma); assay: Cytotoxic activity, WST-1 assay; format: cell-based; conditions: Homo sapiens; Colo-829, 72 h; Neg = negative in the concentration used
[5] = test system: C-32 (human amelanotic melanoma); assay: Cytotoxic activity, WST-1 assay; format: cell-based; conditions: C-32, 72 h, Neg = negative in the concentration used; for IC50: Homo sapiens
[6] = test system: SKOV-3 human ovarian cancer cell line; assay: Inhibition of tumor cell proliferation (MTT); conditions: SK-OV-3, 96 h, read-out: Max. Inhibition (% of Control)
Procedure: Antiproliferative activities of the compounds were measured by the MTT assay using A549 cells and a human ovarian cancer cell line SKOV-3 (adenocarcinoma ATCC® HTB77™). A total of 2 × 10^3 cells in DMEM medium supplemented with 5% FBS were placed in each well of a 96-well flat-bottom plate. After 24 h of incubation at 37 °C in 5% CO2, the growth medium was replaced by media containing different concentrations of the derivatives. Control cultures received cisplatin 0.1–10 μg/mL, and blank wells contained 100 μL of growth medium with no cells. After 96 h of incubation, cell proliferation was determined by the colorimetric MTT assay (570 nm) reading for each concentration compared with the control. At least three replicates for each sample were used to determine the cell proliferation.

[7] = Cytotoxicity assay (MTT), determination of CC50; conditions: human
Procedure: (§1) The cytotoxic effect of compounds on A549 cells was determined by the MTT method, as previously described [36]. The MTT assay is the enzyme-based method, which use the 3-(4,5-dimethylthiazol-2-yl)-2,5-diphenyltetrazolium bromide as a reductive coloring agent. Briefly, subconfluent monolayers of A549 cells (2 × 10^4 cell/well in Dulbecco’s Minimal Essential Medium (DMEM) supplemented with 5% fetal bovine serum (FBS), antibiotics (100 U/mL penicillin and 100 μg/mL streptomycin), and 2 mM L-glutamine (all from Sigma Aldrich, St. Louis, MO, USA) were incubated in 96-multi-well plates in the presence of dilutions of the compounds ranging from 100 μg/mL to 0.5 μg/mL, in triplicate for 48 h at 37 °C in a humidified atmosphere with 5% CO2. After 48 h, 20 μL of MTT solution (Promega, Madison, WI, USA) was added to each well, and the microplates were kept at 37 °C/5% CO2 for 3 h. Then, the solubilization/stop solution containing SDS-HCl (100 μL/well) was added, and the absorbance values of the wells were measured at 570 nm using a 96-well plate reader (Multiskan RC spectrophotometer, Thermo Labsystems, Waltham, MA, USA). Cell viability (%) was calculated for each concentration as Abs treated/Abs control × 100, where Abs treated and Abs control are the absorbance readings for the wells with and without the tested compounds, respectively. The 50% cytotoxic concentration (CC50) was defined as the concentration that reduced cell viability by 50% with respect to controls without drugs. The CC50 value was calculated from the corresponding dose–response curves.

[8] = test system: human adenovirus type-5 (HAdV-5); assay: Time of addition assay, CPE/MTT in A549 cells; format: cell-based; conditions: for antiviral activity: HAdV-5, A549 cells, CC20 concentration
[9] = test system: vesicular stomatitis virus (VSV); format: cell-based; conditions: A549 cells, CC20 concentration
[10] = test system: herpes simplex virus type-1 (HSV-1); assay: Time of addition assay, CPE/MTT in A549 cells; format: cell-based; conditions: HSV-1, A549 cells, CC20 concentration
in vitro = conditions: human
Procedure: as §1

[11] = test system: Escherichia coli ATCC 25922; assay: Broth microdilution method (MIC, MBC)
Procedure: (§2) The minimal inhibitory concentration (MIC) and minimal bactericidal concentration (MBC) were determined by the broth microdilution method, according to the Clinical and Laboratory Standards Institute [32, 33].
(§3) The antibacterial and antifungal activities of compounds were evaluated using the following strains: Staphylococcus aureus (ATCC 25923), Enterococcus faecalis (ATCC 29212), Escherichia coli (ATTC 25922), Pseudomonas aeruginosa (ATTC 27853), Klebsiella pneumoniae ATTC 700603), and Candida albicans (ATTC 10231). Cells were cultured for 24–48 h on Columbia agar or Sabouraud agar (C. albicans) in a saline solution (0.9% NaCl) and adjusted to a 0.5 McFarland density standard (1.5 × 10^8 CFU/mL). The final density of microorganisms was approximately 3 × 10^5 CFU/mL. The solutions of compounds were added to the medium at various concentrations (0.06 μM–2 mM). […] The experiments were performed in triplicate.

[12] = test system: Klebsiella pneumoniae ATCC 700603; assay: Broth microdilution method (MIC, MBC)
Procedure: as §2, §3

[13] = selectivity index, ratio of CC50 to EC50, ECBO in A549 cells

| SMILES | EC50 [1] | SI [1, 13] | IC50 ± SD [2] | IC50 ± SD [3] | IC50 (SNB-19 (glioblastoma)) | IC50 [4] | antiviral activity [1] | antiviral activity [8] | antiviral activity [9] | antiviral activity [10] | IC50 [2] | IC50 [3] | IC50 [5] | melting point | CC50 at 48 h (in vitro) | inhibition at 50 µg/mL [6] | further results |
| --- | --- | --- | --- | --- | --- | --- | --- | --- | --- | --- | --- | --- | --- | --- | --- | --- | --- |
| C=C(C)[C@@H]1CC[C@]2(CO)CC[C@]3(C)[C@H](CC[C@@H]4[C@@]5(C)CC[C@H](O)C(C)(C)[C@@H]5CC[C@]43C)[C@@H]12 [Betulin 1, Betulin] | 0.5 µg/mL (≈ 1.13 µM) | 37.0 | Neg | Neg | 17.7 ± 1.2 µM | 15.3 ± 2.2 µM | – | – | – | – | – | – | – | – | – | – | SI ([1]; selectivity index, ratio of CC50 to EC50, ECBO in A549 cells, listed as betulin 1): 37; IC50 ± SD [5]: Neg; inhibition at 2.5 µg/mL [6]: 30%; CC50 at 48 h [7]: 18.5 µg/mL (≈ 41.8 µM) |
| C#CC(=O)OC[C@]12CCC(C(=C)C)C1C1CCC3[C@@]4(C)CC[C@H](O)C(C)(C)C4CC[C@@]3(C)[C@]1(C)CC2 (some centres unmarked) [Compound 3, 28-O-propynoylbetulin] | – | – | – | – | 4.2 ± 0.3 µM | 1.7 ± 0.08 µM | did not exhibit antiviral activity | did not exhibit antiviral activity | did not exhibit antiviral activity | did not exhibit antiviral activity | 110.8 ± 0.9 µM | 102 ± 1.4 µM | 16.7 ± 0.8 µM | – | – | – | – |
| C#CC(=O)OC[C@]12CCC(C(=C)C)C1C1CCC3[C@@]4(C)CC[C@H](OC(=O)C#C)C(C)(C)C4CC[C@@]3(C)[C@]1(C)CC2 (some centres unmarked) [Compound 4, 3,28-O,O’-di(propynoyl)betulin] | – | – | Neg | Neg | 13.1 ± 1.3 µM | 9.7 ± 1.5 µM | did not exhibit antiviral activity | did not exhibit antiviral activity | did not exhibit antiviral activity | did not exhibit antiviral activity | – | – | 121 ± 4.1 µM | – | – | – | – |
| C=C(C)C1CCC2(COC(=O)c3cn(C4CC(n5cc(C)c(=O)[nH]c5=O)OC4CO)nn3)CCC3(C)C(CCC4C5(C)CCC(O)C(C)(C)C5CCC43C)C12 (centres unmarked) [Compound 5e] | 1 µg/mL (≈ 1.31 µM) | 10.3 | total decay of cytotoxic activity and Neg | Neg | – | 35.1 ± 6.2 µM | – | – | – | – | – | – | 75.2 ± 3.7 µM | 181 to 185 °C | 10.3 µg/mL (≈ 13.5 µM) | 75% | SI ([8]; anti-HAdV-5 activity, ratio of CC50 to EC50, data not shown): 6; IC50 ± SD (SNB-19 (glioblastoma)): Neg; MBC ([11]; ATCC25922): 7.8 µM (≈ 5.94 µg/mL); MIC ([11]; ATCC25922, 18 h): 1.95 µM (≈ 1.49 µg/mL); bactericidal capacity ([11]; judged from MBC:MIC ratio): bactericidal activity; MBC:MIC ratio [12]: > 4; MBC ([12]; ATCC700603): 3.9 µM (≈ 2.97 µg/mL); MIC ([12]; ATCC700603, 18 h): 0.95 µM (≈ 0.724 µg/mL); bactericidal capacity ([12]; judged from MBC:MIC ratio): bacteriostatic |
| C=C(C)C1CC[C@]2(COC(=O)c3cn(CCCO)nn3)CC[C@]3(C)C(CCC4[C@@]5(C)CC[C@H](OC(=O)c6cn(CCCO)nn6)C(C)(C)C5CC[C@]43C)C12 (some centres unmarked) [Compound 6h, 3,28-O,O’-Di[1-(3-hydroxypropyl-1H-1,2,3-triazol-4-yl)carbonyl]betulin] | 0.25 µg/mL (≈ 0.334 µM) | – | – | – | 68.3 ± 0.9 µM | 6.5 ± 1 µM | – | essentially inactive | essentially inactive | essentially inactive | 62.4 ± 1.1 µM | 11.7 ± 1.2 µM | 9.1 ± 0.2 µM | 172 to 176 °C | 29.8 µg/mL (≈ 39.8 µM) | 70% | – |
| NC(=O)c1ncn([C@@H]2O[C@H](CO)[C@@H](O)[C@H]2O)n1 [Ribavirin, reference compound] | 10 µg/mL (≈ 40.9 µM) | – | – | – | – | – | – | – | – | – | – | – | – | – | – | – | SI [1]: 10.0; inhibition at 1.5 µg/mL [6]: 30%; CC50 at 48 h ([7]; A549 cells): 100 µg/mL (≈ 409 µM) |
